Assay results published in PMC11851430, “Workflow for E3 Ligase Ligand Validation for PROTAC Development” (ACS Chemical Biology, 2025).

Key:
full-length AAK1 = full-length AAK1 (Homo sapiens, UniProt Q2M2I8); test: NanoBRET target engagement assay, intact and permeabilized cells
Description: (§9) Compounds were pipetted at various concentrations using an Echo acoustic dispenser (Labcyte), immediately followed by Tracer K10 (Promega, Tracer DB ID: T000008) for AAK1 and Aurora A and VHL Tracer (Promega, Tracer DB ID: T000019) for VHL, at an optimum KD concentration chosen from TracerDB ( tracerdb.org), respectively.
(§10) To measure the BRET signal, the NanoBRET® NanoGlo Substrate (Promega:
(§11) N1573) was added as per the manufacturer’s protocol, and filtered luminescence was measured on a PHERAstar plate reader (BMG Labtech) equipped with a luminescence filter pair (450 nm BP filter (donor) and 610 nm LP filter (acceptor)). For NanoBRET® measurement in permeabilized cells, 25 nL of digitonin (0.05 μg/μL) was pipetted into each well using an
(§12) After incubation, the BRET signals were measured by a PHERAstar plate reader (BMG Labtech) following the same procedure as intact NanoBRET® measurement. Competitive displacement data were then normalized to controls and were plotted using GraphPad Prism 9 software employing a normalized 3-parameter curve fit with the following equation:

AURKA = target: T1, AURKA (Homo sapiens, UniProt O14965); test: as above; settings: mean of duplicates, ^a values estimated by extrapolation
T1 sequence (O14965 1-403): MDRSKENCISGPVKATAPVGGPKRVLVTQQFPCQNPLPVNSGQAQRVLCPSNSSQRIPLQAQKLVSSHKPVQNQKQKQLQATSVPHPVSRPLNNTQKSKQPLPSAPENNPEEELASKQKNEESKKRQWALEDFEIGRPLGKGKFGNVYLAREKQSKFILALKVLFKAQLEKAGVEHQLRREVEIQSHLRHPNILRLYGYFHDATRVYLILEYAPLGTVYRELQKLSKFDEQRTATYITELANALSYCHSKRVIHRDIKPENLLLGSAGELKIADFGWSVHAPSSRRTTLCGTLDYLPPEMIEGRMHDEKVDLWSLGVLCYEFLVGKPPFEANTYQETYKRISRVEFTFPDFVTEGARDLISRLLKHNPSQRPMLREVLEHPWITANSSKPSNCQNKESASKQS
Description: as §9, §10, §11, §12

[1] = target: T2, kinase protein levels in MCF-7 cells (Homo sapiens, UniProt Q9BTL3); test: TMT-labeled quantitative proteomics; assay type: cell-based; settings: protein FAM103A1; MCF7; 1 µM; set5
T2 construct: endogenous in cells; host or cells: MCF-7
Description: (§1) 50 µl of SDS Lysis Buffer (2% SDS, 50 mM TRIS pH 8.5, 10 mM TCEP, 40 mM CAA) was added to each sample. Cells were transferred into low binding reaction tubes (Eppendorf:
(§2) Methanol/Chloroform Precipitation. 200 µl of methanol and 50 µl of chloroform were added to each sample reaction tube and mixed via vortex. 150 µl of milliQ-H2O were added and samples were vortexed further. Samples were centrifuged for 5 minutes at 15000 g and the aqueous layer above the interphase was removed. 150 µl of methanol was added, samples were vortexed and centrifuged for 10 minutes at 15000 g to precipitate the pellet. The aforementioned wash procedure was repeated twice before transferring the pellet to a new low bind reaction tube in which it was allowed to dry for 5 minutes.
(§3) Dissolving the Protein Pellet and Protein Quantification. 50 µl of digestion buffer (8 M Urea, 50 mM TRIS pH 8) was added to each sample before vortexing and shaking at 750 rpm at room temperature for 10 minutes to solubilize the pellet. Protein quantification via PierceTM […]
(§4) Protein Digestion. Samples were diluted 1:2 with 50 mM TRIS pH 8.5 to reach a final concentration of 4 M Urea. Lys-C (Promega: VA1170) was added at a 1:100 enzyme/substrate ratio. Samples were agitated at 550 rpm and 37 °C for 3 h. Samples were further diluted with 50 mM TRIS pH 8.5 to a final concentration of 1 M Urea and Trypsin (Promega: V5280) was added at a 1:100 enzyme/substrate ratio. Samples were agitated overnight at 550 rpm and 37 °C. The digestion was stopped the following day via addition of TFA to a final concentration […]
(§5) Solid Phase Extraction via C18 Cartridges. Sep-Pak C18 Cartridges (Waters: WAT054955) were used for solid phase extraction of digested peptides. For preconditioning of C18 cartridges, 1 mL of methanol was added to each column followed by 1 mL of solution B (0.1% formic acid, 80% acetonitrile) and 1 mL of solution A (0.1% formic acid, ddH2O) twice. Samples […]
(§6) were loaded to their respective columns and once samples had passed, columns were washed twice with solution A to remove unwanted components from the loading step. Elution of samples was carried out via introduction of 40% and 60% acetonitrile steps. Samples were dried and snap frozen in liquid nitrogen.
(§7) TMT-Labeling. Desalted peptides were dried and resuspended in TMT-labeling buffer (200 mM EPPS pH 8.2, 20% acetonitrile). 10 μg of peptides per condition were subjected to TMT labeling with 1:2.5 peptide TMT ratio (w/w) for 1 h at room temperature. The labeling reaction was quenched by addition of hydroxylamine to a final concentration of 0.5% and incubation at room temperature for 15 minutes. Successful TMT labeling was verified by mixing equimolar ratios of peptides and subjecting the mix to single shot LC-MS/MS analysis. For high pH reversed phase fractionation on a Dionex analytical HPLC, 50 µg of pooled and purified TMT labelled samples were resuspended in 10 mM ammonium-bicarbonate (ABC), 5% acetonitrile, and separated on a 250 mm long C18 column (Aeris Peptide XB-C18, 4.6 mm ID, 2.6 µm particle size; Phenomenex) using a multistep gradient from 100% solvent A (5% acetonitrile, 10 mM ABC in water) to 60% solvent B (90% acetonitrile, 10 mM ABC in water) over 70 minutes. Eluting peptides were collected every 45 seconds into a total of 96 fractions, which were cross-concatenated into 24 fractions and dried in a vacuum concentrator and resuspended in 3% acetonitrile with 0.1% TFA for LC-MS analysis.
(§8) Mass spectrometry data acquisition. Tryptic peptides were analyzed on an Orbitrap Lumos coupled to an easy nLC 1200 (ThermoFisher Scientific) using a 35 cm long, 75 µm ID fused-silica column packed in house with 1.9 µm C18 particles (Reprosil pur, Dr. Maisch), and kept at 50 °C using an integrated column oven (Sonation). HPLC solvents consisted of 0.1% formic acid in water (buffer A) and 0.1% formic acid and 80% acetonitrile in water (buffer B). Assuming

[2] = target: T3, kinase protein levels in MCF-7 cells (Homo sapiens, UniProt A0A096LP01); test: TMT-labeled quantitative proteomics; assay type: cell-based; settings: MCF7, 1 µM
T3 construct: endogenous in cells; host or cells: MCF-7
Description: as §1, §2, §3, §4, §5, §6, §7, §8

[3] = test system: kinase protein levels in MCF-7 cells; test: TMT-labeled quantitative proteomics; assay type: cell-based, human; settings: for kinase degradation: MCF-7 cells, 1 μM, 6 h; for log2FC (compound/DMSO): MCF7, 1 µM, set5
Description: as §1, §2, §3, §4, §5, §6, §7, §8

VHL = VHL (Homo sapiens, UniProt P40337); test: cell-based; design: full-length, NanoLuc fusion (Promega N2741); species or system HEK293T; NanoBRET VHL tracer displacement in permeabilized cells, NanoLuc-VHL fusion; settings: permeabilized cells; read-out: VHL permeabilized (IC50±sd)/µM
Jurkat cells = test: CellTiterGlo cell viability assay; assay type: cell-based, human; settings: 24 h
Description: The effects of the compounds on cell viability was determined using the CellTiter-Glo® 2.0 Cell Viability Assay (Promega: G9241) following manufacturer’s protocol. Ten µL of Jurkat cells at […]
After equilibration, PROTACs were titrated at various concentrations using an Echo acoustic […]
volume of CellTiter-Glo® 2.0 reagent (10 µL) was added to each well and cells were incubated for 10 minutes at room temperature. Filtered luminescence was measured on a PHERAstar plate reader (BMG Labtech) and data was evaluated using GraphPad Prism 9 software employing a normalized curve it with the following equation: Y=Bottom + (Top-Bottom)/(1+10(LogEC50-X) *HillSlope).
Sample preparation. Jurkat cells (ATCC © HTB-22) were cultured in RPMI (Thermo: […]

[4] = target: T4, kinase protein levels in MCF-7 cells (Homo sapiens, UniProt P0DPI2); test: TMT-labeled quantitative proteomics; assay type: cell-based; settings: protein GATD3; MCF7; 1 µM; set2
T4 construct: endogenous in cells; host or cells: MCF-7
T4 sequence (P0DPI2 42-268): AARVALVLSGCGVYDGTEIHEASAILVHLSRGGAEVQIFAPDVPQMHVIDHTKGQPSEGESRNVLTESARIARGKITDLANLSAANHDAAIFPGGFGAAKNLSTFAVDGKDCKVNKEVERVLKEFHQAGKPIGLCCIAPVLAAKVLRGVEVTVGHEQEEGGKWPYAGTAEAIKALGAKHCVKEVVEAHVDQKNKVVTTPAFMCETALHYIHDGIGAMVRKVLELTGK
Description: as §1, §2, §3, §4, §5, §6, §7, §8

[5] = target: T5, kinase protein levels in MCF-7 cells (Homo sapiens, UniProt A0A0B4J2F0); test: TMT-labeled quantitative proteomics; assay type: cell-based; settings: protein PIGBOS1; MCF7; 1 µM; set2
T5 construct: endogenous in cells; host or cells: MCF-7
T5 sequence (A0A0B4J2F0 1-54): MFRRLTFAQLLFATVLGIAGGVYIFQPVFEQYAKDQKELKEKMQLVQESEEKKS
Description: as §1, §2, §3, §4, §5, §6, §7, §8

[6] = target: T6, kinase protein levels in MCF-7 cells (Homo sapiens, UniProt A0A024RBG1); test: TMT-labeled quantitative proteomics; assay type: cell-based; settings: protein NUDT4B; MCF7; 1 µM; set2
T6 construct: endogenous in cells; host or cells: MCF-7
Description: as §1, §2, §3, §4, §5, §6, §7, §8

[7] = target: T7, kinase protein levels in MCF-7 cells (Homo sapiens, UniProt A0A0U1RRE5); test: TMT-labeled quantitative proteomics; assay type: cell-based; settings: protein NBDY; MCF7; 1 µM; set2
T7 construct: endogenous in cells; host or cells: MCF-7
T7 sequence (A0A0U1RRE5 1-68): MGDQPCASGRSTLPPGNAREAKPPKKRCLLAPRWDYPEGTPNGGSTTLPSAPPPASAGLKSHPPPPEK
Description: as §1, §2, §3, §4, §5, §6, §7, §8

[8] = AAK1 intact (IC50±sd)/μM, NanoBRET, intact cells, mean of duplicates, ^a values estimated by extrapolation
[9] = AAK1 permeabilized (IC50±sd)/μM, NanoBRET, permeabilized cells, mean of duplicates
[10] = AURKA intact (IC50±sd)/μM, intact cells
[11] = AURKA permeabilized (IC50±sd)/μM, permeabilized cells
[12] = protein NBPF19;NBPF15;NBPF8;NBPF10;NBPF3;NBPF11;NBPF26;NBPF14;NBPF1;NBPF12

T3 sequence (A0A096LP01 whole entry): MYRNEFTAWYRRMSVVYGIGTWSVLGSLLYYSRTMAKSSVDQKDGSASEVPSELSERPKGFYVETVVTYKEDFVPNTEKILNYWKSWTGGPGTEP
T2 sequence (Q9BTL3 whole entry): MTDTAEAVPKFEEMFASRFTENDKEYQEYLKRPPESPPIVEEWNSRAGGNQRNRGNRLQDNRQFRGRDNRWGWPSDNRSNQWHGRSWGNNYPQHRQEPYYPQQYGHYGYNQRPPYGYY
Chain of VHL (P40337 whole entry, the tested form may be a part): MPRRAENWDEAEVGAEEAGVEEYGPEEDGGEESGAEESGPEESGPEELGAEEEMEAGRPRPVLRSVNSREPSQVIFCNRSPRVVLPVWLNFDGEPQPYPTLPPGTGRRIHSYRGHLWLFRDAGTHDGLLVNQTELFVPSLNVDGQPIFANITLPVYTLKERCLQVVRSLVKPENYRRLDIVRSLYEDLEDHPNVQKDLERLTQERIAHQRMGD
Chain of full-length AAK1 (Q2M2I8 whole entry): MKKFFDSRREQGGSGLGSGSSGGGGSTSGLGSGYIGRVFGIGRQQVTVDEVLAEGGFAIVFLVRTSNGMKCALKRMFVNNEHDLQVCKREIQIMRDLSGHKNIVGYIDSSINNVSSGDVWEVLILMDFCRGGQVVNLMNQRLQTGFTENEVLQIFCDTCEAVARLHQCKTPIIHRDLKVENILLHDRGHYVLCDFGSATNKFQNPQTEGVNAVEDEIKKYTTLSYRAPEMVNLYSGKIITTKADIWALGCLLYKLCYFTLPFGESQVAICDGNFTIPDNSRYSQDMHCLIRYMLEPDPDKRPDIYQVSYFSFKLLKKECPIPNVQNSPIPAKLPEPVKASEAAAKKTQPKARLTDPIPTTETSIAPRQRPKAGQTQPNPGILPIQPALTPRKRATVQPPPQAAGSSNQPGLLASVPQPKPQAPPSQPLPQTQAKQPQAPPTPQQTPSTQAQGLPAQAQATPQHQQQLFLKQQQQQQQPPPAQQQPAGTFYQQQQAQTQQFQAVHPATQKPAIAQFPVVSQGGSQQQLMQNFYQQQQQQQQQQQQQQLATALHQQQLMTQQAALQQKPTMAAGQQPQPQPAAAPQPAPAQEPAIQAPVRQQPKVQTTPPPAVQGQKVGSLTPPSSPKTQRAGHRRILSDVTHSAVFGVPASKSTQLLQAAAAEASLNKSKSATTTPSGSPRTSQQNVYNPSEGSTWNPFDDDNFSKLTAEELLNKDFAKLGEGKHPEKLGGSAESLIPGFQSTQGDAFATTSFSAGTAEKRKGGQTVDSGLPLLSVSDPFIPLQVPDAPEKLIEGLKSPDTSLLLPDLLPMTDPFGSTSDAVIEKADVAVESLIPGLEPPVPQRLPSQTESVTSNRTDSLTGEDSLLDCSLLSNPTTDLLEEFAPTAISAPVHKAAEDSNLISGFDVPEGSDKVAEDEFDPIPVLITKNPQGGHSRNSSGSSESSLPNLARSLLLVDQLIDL
T6 sequence (A0A024RBG1 whole entry): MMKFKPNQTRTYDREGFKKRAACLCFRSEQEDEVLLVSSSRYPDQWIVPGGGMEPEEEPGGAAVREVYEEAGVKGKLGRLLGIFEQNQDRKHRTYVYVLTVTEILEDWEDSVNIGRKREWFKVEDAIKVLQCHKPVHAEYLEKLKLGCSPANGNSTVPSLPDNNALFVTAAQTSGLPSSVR

Structure (SMILES)	IC50 (full-length AAK1; [8]) [µM]	IC50 (full-length AAK1; [9]) [µM]	IC50 (AURKA; [10]) [µM]	IC50 (AURKA; [11]) [µM]	P.Value (compound/DMSO) [1]	log2FC (compound/DMSO) [1]	P.Value (compound/DMSO) ([2]; protein LINC00493, set5)	log2FC (compound/DMSO) ([2]; protein LINC00493, set5)	kinase degradation [3]	log2FC (compound/DMSO) ([3]; protein ARHGEF5;ARHGEF35)	log2FC (compound/DMSO) [3, 12]	IC50 (VHL) [µM]	further results
Cc1ncsc1-c1ccc(CNC(=O)[C@@H]2C[C@@H](O)CN2C(=O)[C@@H](NC(=O)CCOCCOCCOCCOCCOCCOCCN2CCN(c3cc(Nc4cc(C5CC5)[nH]n4)nc(Nc4ccc(CC#N)cc4)n3)CC2)C(C)(C)C)cc1 [4-b]	~1.84	0.081	~18.9	4.84 ± 2.01	0.9701	0.005351	0.7132	0.05687	did not result in significant degradation of any kinase	0.1142	0.1563	0.97 ± 0.013	AAK1 intact (IC50±sd)/μM (full-length AAK1; NanoBRET, intact cells, mean of duplicates, ^a values estimated by extrapolation): single-digit micromolar; cell permeability / cell penetration (full-length AAK1; as shown by the NanoBRET data (intact vs permeabilized cells)): Inefficient cell penetration
Cc1ncsc1-c1ccc(CNC(=O)[C@@H]2C[C@@H](O)CN2C(=O)[C@@H](NC(=O)CCCCCCN2CCN(c3cc(Nc4cc(C5CC5)[nH]n4)nc(Nc4ccc(CC#N)cc4)n3)CC2)C(C)(C)C)cc1 [4-c]	0.443 ± 0.043	0.178 ± 0.029	~5.98	2.73 ± 0.78	0.9983	-0.0003068	0.06841	0.3546	significant degradation of several kinases	0.09465	-0.3485	4.32 ± 1.46	–
Cc1ncsc1-c1ccc(CNC(=O)[C@@H]2C[C@@H](O)CN2C(=O)[C@@H](NC(=O)CCOCCOCCN2CCN(c3ccc(Nc4ncc(Cl)c(Nc5ccccc5C(N)=O)n4)cc3)CC2)C(C)(C)C)cc1 [6-a]	0.088 ± 0.003	0.028 ± 0.001	0.203 ± 0.01	0.105 ± 0.007	0.2865	0.1658	0.02321	-0.4581	significant degradation of several kinases	0.1364	-0.2637	1.123 ± 0.005	effect on cell viability (cytotoxicity) (Jurkat cells): particularly pronounced effects on cell viability; IC50 (Jurkat cells; Homo sapiens, mean of triplicates, ^b/^c values estimated, read-out: IC50±sd/μM (cell viability)): ~0.8 µM
CC(=O)N[C@H](C(=O)N1C[C@H](O)C[C@H]1C(=O)NCc1ccc(-c2scnc2C)cc1OCCOCCOCCOCCOCCC(=O)N1CCN(c2cc(Nc3cc(C4CC4)[nH]n3)nc(Nc3ccc(CC#N)cc3)n2)CC1)C(C)(C)C [4-d]	0.126 ± 0.033	0.038 ± 0.006	4.62 ± 1.12	1.52 ± 0.061	–	–	–	–	did not result in significant degradation of any kinase	–	–	0.366 ± 0.064	P.Value (compound/DMSO) [4]: 0.2539; log2FC (compound/DMSO) [4]: -0.1491; P.Value (compound/DMSO) ([2]; protein SMIM26, set2): 0.9318; log2FC (compound/DMSO) ([2]; protein SMIM26, set2): 0.01005; P.Value (compound/DMSO) [5]: 0.6355; log2FC (compound/DMSO) [5]: 0.04834; P.Value (compound/DMSO) [6]: 0.1315; log2FC (compound/DMSO) [6]: -0.2481; P.Value (compound/DMSO) [7]: 0.03785; log2FC (compound/DMSO) [7]: -0.3975
